# Assay results from US10428082B2, “Triazole derivatives of melampomagnolide B and methods of use thereof” (BioVentures, LLC, priority 2016, dated 2019).
# pEC50: −log10 of the molar value. Read-outs that look alike come from different tables or passages of the source.
# How the values were obtained:
# M9 ENL1 cell line = experiment: Anti-leukemic activity, Annexin V/7-AAD flow cytometry; type: cell-based
# Procedure, shortened: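 Cells were exposed to drug for 24 h. Apoptotic populations were measured by flow cytometry with Annexin V/7-AAD labelling. Primary AML cells were from patients.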
# [1] = tested on: primary AML cell line AML1; experiment: as above; type: cell-based, human
# Procedure: (§1) The newly synthesized triazole derivatives of melampomagnolide B were screened for anti-leukemic activity against M9 ENL1 and primary AML cell lines; the latter were obtained with informed consent from human patients. Evaluations were performed after 24 h of drug exposure using flow cytometric analysis by labeling with Annexin V and 7-aminoactinomycin D (7-AAD) to delineate apoptotic cell populations. In all experiments PTL was included as a reference control.
# [2] = tested on: primary AML cell line AML2; experiment: as above; type: cell-based, human
# Procedure: as §1
# HO-1 = experiment: Induction of HO-1 by Western blot assay; type: cell-based
# NF-κB pathway = experiment: NF-κB inhibition by Western blot, phosphorylation of the P65 subunit; type: cell-based
# Procedure: Also JVM 4-29 was evaluated for NF-κB inhibition by Western blot analysis; by determining its effect on the phosphorylation of the P65 subunit.
# 786-0 = experiment: NCI 60 growth inhibition; type: cell-based, human; settings: Homo sapiens; 786-0, Renal Cancer, Table 2
# DU-145 = experiment: NCI 60 growth inhibition; type: cell-based, human; settings: Homo sapiens; DU-145, Prostate Cancer, Table 2
# EKVX = experiment: NCI 60 growth inhibition; type: cell-based, human; settings: Homo sapiens, Non-Small Cell Lung Cancer, Table 2
# HCC-2998 = experiment: NCI 60 growth inhibition; type: cell-based, human; settings: Homo sapiens; HCC-2998, Colon Cancer, Table 2
# HCT-15 = experiment: NCI 60 growth inhibition; type: cell-based, human; settings: Homo sapiens; HCT-15, Colon Cancer, Table 2
# HS 578T = experiment: NCI 60 growth inhibition; type: cell-based, human; settings: Homo sapiens, Breast Cancer, Table 2
# HT29 = experiment: NCI 60 growth inhibition; type: cell-based, human; settings: Homo sapiens; HT-29, Colon Cancer, Table 2
# IGROV1 = experiment: NCI 60 growth inhibition; type: cell-based, human; settings: Homo sapiens, IGROV-1; IGROV1, Ovarian Cancer, Table 2
# LOX IMVI = experiment: NCI 60 growth inhibition; type: cell-based, human; settings: Homo sapiens, Melanoma, Table 2
# MDA-MB-468 = experiment: NCI 60 growth inhibition; type: cell-based, human; settings: Homo sapiens; MDA-MB-468, Breast Cancer, Table 2
# NCI-H322M = experiment: NCI 60 growth inhibition; type: cell-based, human; settings: Homo sapiens, Non-Small Cell Lung Cancer, Table 2
# NCI-H522 = experiment: NCI 60 growth inhibition; type: cell-based, human; settings: Homo sapiens; NCI-H522, Non-Small Cell Lung Cancer, Table 2
# NCI/ADR-RES = experiment: NCI 60 growth inhibition; type: cell-based, human; settings: Homo sapiens, Ovarian Cancer, Table 2
# PC-3 = experiment: NCI 60 growth inhibition; type: cell-based, human; settings: Homo sapiens; PC-3, Prostate Cancer, Table 2
# SK-MEL-28 = experiment: NCI 60 growth inhibition; type: cell-based, human; settings: Homo sapiens; SK-MEL-28, Melanoma, Table 2
# SK-OV-3 = experiment: NCI 60 growth inhibition; type: cell-based, human; settings: Homo sapiens; SK-OV-3, Ovarian Cancer, Table 2
# SNB-19 = experiment: NCI 60 growth inhibition; type: cell-based, human; settings: Homo sapiens; SNB-19, CNS Cancer, Table 2
# U251 = experiment: NCI 60 growth inhibition; type: cell-based, human; settings: Homo sapiens, U-251; U251, CNS Cancer, Table 2
# UACC-257 = experiment: NCI 60 growth inhibition; type: cell-based, human; settings: Homo sapiens; UACC-257, Melanoma, Table 2
# UACC-62 = experiment: NCI 60 growth inhibition; type: cell-based, human; settings: Homo sapiens; UACC-62, Melanoma, Table 2
# [3] = tested on: NCI panel of 60 human cancer cell lines; experiment: NCI 60 growth inhibition, ranges over groups of cell lines; type: cell-based; settings: read-out: GI50
# Procedure: The above triazole derivatives of melampomagnolide B were evaluated for growth inhibitory properties against an NCI panel of 60 human cancer cell lines derived from nine human cancer cell types, grouped into disease sub-panels that represent leukemia, lung, colon, central nervous system (CNS), melanoma, renal, ovary, breast, and prostate cancer cells. Growth inhibitory (GI50) effects were measured as a function of the variation of optical density as a percentage of control.
smiles,measurement,setting,value
"C=C1C(=O)O[C@H]2[C@H]1CC/C(Cn1cc(-c3cc(C(F)(F)F)cc(C(F)(F)F)c3)nn1)=C\CC[C@@]1(C)O[C@@H]21 [JVM 4-29, (1aR,7aS,10aS,10bS,E)-5-((4-(3,5-bis(Trifluoromethyl)phenyl)-1H-1,2,3-triazol-1-yl)methyl)-1a-methyl-8-methylene-2,3,6,7,7a,8,10a,10b-octahydrooxireno[2′,3′:9,10]cyclodeca[1,2-b]furan-9(1aH)-one]",pEC50,"M9 ENL1 cell line; M9-ENL1, 24 h, 24 h of drug exposure, read-out: M9ENL1 (EC50)",6.22
same,cytotoxicity compared with parthenolide,M9 ENL1 cell line; M9 ENL1 cell assay,more cytotoxic than parthenolide
same,fold more potent than parthenolide (PTL),M9 ENL1 cell line; M9 ENL1 cells,8.6 fold
same,pEC50,"[1]; Homo sapiens, AML1, 24 h, 24 h of drug exposure, read-out: AML#1 (EC50)",6.40
same,fold more cytotoxic compared to DMAPT,[1]; primary cell line AML1,36.7 fold
same,fold more potent anti-leukemic activity than PTL,[1]; primary cell line AML1,32.7 fold
same,fold more potent than the MMB,[1]; primary cell line AML1,51.2 fold
same,pEC50,"[2]; Homo sapiens, 24 h, 24 h of drug exposure, read-out: AML#2 (EC50)",6.15
same,fold more cytotoxic compared to DMAPT,[2]; primary cell line AML2,16.1 fold
same,fold more potent anti-leukemic activity than PTL,[2]; primary cell line AML2,14.8 fold
same,fold more potent than the MMB,[2]; primary cell line AML2,34.7 fold
same,induction of HO-1 compared to PTL,HO-1,stronger induction of HO-1 when compared to PTL
same,inhibition of the NF-κB pathway compared to parthenolide,NF-κB pathway,significantly more potency as an inhibitor of the NF-κB pathway when compared to parthenolide
same,GI50,786-0,0.16 µM
same,GI50,DU-145,0.72 µM
same,GI50,EKVX,1.5 µM
same,GI50,HCC-2998,1.17 µM
same,GI50,HCT-15,0.19 µM
same,GI50,HS 578T,1.03 µM
same,GI50,HT29,0.19 µM
same,GI50,IGROV1,0.84 µM
same,GI50,LOX IMVI,0.15 µM
same,GI50,MDA-MB-468,0.42 µM
same,GI50,NCI-H322M,1.67 µM
same,GI50,NCI-H522,0.12 µM
same,GI50,NCI/ADR-RES,1.05 µM
same,GI50,PC-3,0.83 µM
same,GI50,SK-MEL-28,0.46 µM
same,GI50,SK-OV-3,1.86 µM
same,GI50,SNB-19,1.71 µM
same,GI50,U251,1.44 µM
same,GI50,UACC-257,1.46 µM
same,GI50,UACC-62,0.34 µM
same,GI50,[3]; all the cell lines in the leukemia sub-panel,0.1 to 0.5 µM
same,GI50,[3]; most of the solid tumor cell lines in the panel,0.12 to 0.88 µM
